According to the supplement of paper PMC10307832:

Key:
Experiment in all cases: relative viability (nuclei count vs DMSO), 5 days (fraction); higher = more cells survive
Tipifarnib + Lapatinib = compound: Cn1cncc1[C@@](N)(c1ccc(Cl)cc1)c1ccc2c(c1)c(-c1cccc(Cl)c1)cc(=O)n2C [Tipifarnib] + CS(=O)(=O)CCNCc1ccc(-c2ccc3ncnc(Nc4ccc(OCc5cccc(F)c5)c(Cl)c4)c3c2)o1 [Lapatinib] (partner 2 µM)
Outline: (§1)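 For relative viability, nuclei counts in treated wells were divided by those in vehicle wells. Lung cancer cell lines had been pin-tool dosed in 1536-well plates the day after seeding and cultured for 5 days, then fixed and stained in one step (final 0.05% Triton X-100, 1% formaldehyde, 1 ug/ml Hoechst) and imaged at 4×. Doses were one drug alone or a fixed anchor-drug dose plus five library-drug doses (not always all listed) in √10 steps, and values are duplicate-plate medians.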

Tipifarnib + Trametinib = compound: Cn1cncc1[C@@](N)(c1ccc(Cl)cc1)c1ccc2c(c1)c(-c1cccc(Cl)c1)cc(=O)n2C [Tipifarnib] + CC(=O)Nc1cccc(-n2c(=O)n(C3CC3)c(=O)c3c(Nc4ccc(I)cc4F)n(C)c(=O)c(C)c32)c1 [Trametinib] (partner 0.02 µM)
Outline: as §1

Tipifarnib + Linsitinib = compound: Cn1cncc1[C@@](N)(c1ccc(Cl)cc1)c1ccc2c(c1)c(-c1cccc(Cl)c1)cc(=O)n2C [Tipifarnib] + C[C@]1(O)C[C@@H](c2nc(-c3ccc4ccc(-c5ccccc5)nc4c3)c3c(N)nccn32)C1 [Linsitinib] (partner 1 µM)
Outline: as §1

Tipifarnib + OSI-027 = compound: Cn1cncc1[C@@](N)(c1ccc(Cl)cc1)c1ccc2c(c1)c(-c1cccc(Cl)c1)cc(=O)n2C [Tipifarnib] + COc1cccc2cc(-c3nc([C@H]4CC[C@H](C(=O)O)CC4)n4ncnc(N)c34)[nH]c12 [OSI-027] (partner 0.5 µM)
Outline: as §1

| Cell Line | relative viability (Tipifarnib + Lapatinib; first compound 0.01 µM) | relative viability (Tipifarnib + Lapatinib; first compound 0.03162 µM) | relative viability (Tipifarnib + Lapatinib; first compound 0.1 µM) | relative viability (Tipifarnib + Lapatinib; first compound 0.3162 µM) | relative viability (Tipifarnib + Lapatinib; first compound 1 µM) | relative viability (Tipifarnib + Trametinib; first compound 0.01 µM) | relative viability (Tipifarnib + Trametinib; first compound 0.03162 µM) | relative viability (Tipifarnib + Trametinib; first compound 0.1 µM) | relative viability (Tipifarnib + Trametinib; first compound 0.3162 µM) | relative viability (Tipifarnib + Trametinib; first compound 1 µM) | relative viability (Tipifarnib + Linsitinib; first compound 0.01 µM) | relative viability (Tipifarnib + Linsitinib; first compound 0.03162 µM) | relative viability (Tipifarnib + Linsitinib; first compound 0.1 µM) | relative viability (Tipifarnib + Linsitinib; first compound 0.3162 µM) | relative viability (Tipifarnib + Linsitinib; first compound 1 µM) | relative viability (Tipifarnib + OSI-027; first compound 0.01 µM) | relative viability (Tipifarnib + OSI-027; first compound 0.03162 µM) | relative viability (Tipifarnib + OSI-027; first compound 0.1 µM) | relative viability (Tipifarnib + OSI-027; first compound 0.3162 µM) | relative viability (Tipifarnib + OSI-027; first compound 1 µM) |
| --- | --- | --- | --- | --- | --- | --- | --- | --- | --- | --- | --- | --- | --- | --- | --- | --- | --- | --- | --- | --- |
| NCI-H2405 | 1.06 | 0.942 | 0.949 | 0.878 | 0.625 | 0.7 | 0.518 | 0.487 | 0.489 | 0.582 | 0.952 | 0.885 | 0.845 | 0.821 | 0.79 | 0.673 | 0.641 | 0.629 | 0.599 | 0.474 |
| NCI-H3122 | 1.01 | 0.917 | 0.961 | 0.73 | 0.811 | 0.244 | 0.215 | 0.213 | 0.211 | 0.185 | 1.02 | 0.835 | 0.784 | 0.663 | 0.726 | 0.949 | 0.568 | 0.384 | 0.233 | 0.225 |
| PC-3 [JPC-3] | 0.461 | 0.489 | 0.431 | 0.38 | 0.311 | 0.726 | 0.61 | 0.531 | 0.494 | 0.478 | 0.956 | 0.899 | 0.872 | 0.769 | 0.736 | 0.751 | 0.67 | 0.598 | 0.343 | 0.324 |
| PC-14 | 0.346 | 0.327 | 0.242 | 0.226 | 0.15 | 0.579 | 0.357 | 0.447 | 0.2 | 0.334 | 0.98 | 0.965 | 0.713 | 0.432 | 0.437 | 0.795 | 0.29 | 0.216 | 0.157 | 0.124 |
| RERF-LC-KJ | 0.94 | 0.922 | 0.829 | 0.732 | 0.626 | 0.828 | 0.961 | 0.776 | 0.652 | 0.646 | 0.918 | 0.909 | 0.874 | 0.629 | 0.651 | 0.529 | 0.427 | 0.392 | 0.41 | 0.309 |
| SK-LU-1 | 0.725 | 0.75 | 0.857 | 0.388 | 0.367 | 0.572 | 0.483 | 0.442 | 0.384 | 0.392 | 0.986 | 0.728 | 0.642 | 0.631 | 0.67 | 0.324 | 0.286 | 0.293 | 0.222 | 0.181 |
| SK-MES-1 | 0.466 | 0.455 | 0.481 | 0.411 | 0.386 | 0.465 | 0.539 | 0.54 | 0.459 | 0.601 | 1.08 | 0.917 | 0.985 | 0.792 | 0.809 | 0.642 | 0.453 | 0.354 | 0.265 | 0.332 |
| SW 1573 | 1.08 | 1.13 | 0.669 | 0.648 | 0.243 | 0.487 | 0.354 | 0.362 | 0.255 | 0.25 | 0.7 | 0.709 | 0.518 | 0.387 | 0.365 | 0.583 | 0.244 | 0.292 | 0.238 | 0.17 |
| UMC-11 | 0.84 | 0.605 | 0.595 | 0.475 | 0.281 | 0.653 | 0.569 | 0.471 | 0.377 | 0.301 | 0.86 | 0.632 | 0.563 | 0.523 | 0.577 | 0.432 | 0.359 | 0.348 | 0.301 | 0.343 |
